Measurements from the NIST ThermoML archive (doi:10.1016/j.fluid.2015.07.031).
Several values for one entry are separate records, joined by “and”; a condition that tells them apart may be missing. Identical values can stand only once.

Legend:
[1] = Closed cell (Static) method
[2] = molar heat capacity at constant pressure; details: 101.33 kPa, Liquid, Thin-film microcalorimeter

CC1(C)[C@H]2CC[C@]1(C)[C@H](O)C2 [(1S-endo)-1,7,7-trimethylbicyclo[2.2.1]heptan-2-ol]
[1]
Details | vapor or sublimation pressure
293.12 K, Crystal 2 | 0.001843 kPa
293.13 K, Crystal 2 | 0.001845 kPa and 0.001846 kPa
298.14 K, Crystal 2 | 0.003114 kPa and 0.003117 kPa
298.15 K, Crystal 2 | 0.003118 kPa
303.16 K, Crystal 2 | 0.005163 kPa and 0.005164 kPa
303.17 K, Crystal 2 | 0.005165 kPa
308.16 K, Crystal 2 | 0.008376 kPa
308.18 K, Crystal 2 | 0.008394 kPa and 0.008395 kPa
313.13 K, Crystal 2 | 0.01335 kPa
313.14 K, Crystal 2 | 0.01336 kPa and 0.01337 kPa
318.14 K, Crystal 2 | 0.02101 kPa and 0.02103 kPa
318.15 K, Crystal 2 | 0.02103 kPa
323.17 K, Crystal 2 | 0.03267 kPa
323.18 K, Crystal 2 | 0.03269 kPa
323.19 K, Crystal 2 | 0.03273 kPa
328.14 K, Crystal 2 | 0.04968 kPa and 0.04971 kPa
328.15 K, Crystal 2 | 0.04973 kPa
333.18 K, Crystal 2 | 0.07494 kPa and 0.07496 kPa and 0.07498 kPa
338.2 K, Crystal 2 | 0.1112 kPa
338.21 K, Crystal 2 | 0.1112 kPa
343.15 K, Crystal 2 | 0.1618 kPa and 0.1619 kPa
346.99 K, Crystal 2 | 0.2143 kPa
347.09 K, Crystal 2 | 0.2157 kPa
347.1 K, Crystal 2 | 0.2156 kPa
348.11 K, Crystal 1 | 0.2309 kPa and 0.2308 kPa and 0.2307 kPa
352.88 K, Crystal 1 | 0.3183 kPa
352.89 K, Crystal 1 | 0.3183 kPa and 0.3184 kPa
357.96 K, Crystal 1 | 0.4417 kPa and 0.4418 kPa
357.97 K, Crystal 1 | 0.4424 kPa
362.89 K, Crystal 1 | 0.6015 kPa
362.9 K, Crystal 1 | 0.6015 kPa
362.94 K, Crystal 1 | 0.6029 kPa

CC(C)=CCC/C(C)=C/CO [(E)-3,7-dimethyl-2,6-octadien-1-ol]
[1], Liquid
Details | vapor or sublimation pressure
273.65 K | 0.000112 kPa and 0.000109 kPa and 0.000111 kPa
278.15 K | 0.00019 kPa and 0.000192 kPa and 0.000195 kPa
283.15 K | 0.000357 kPa and 0.000355 kPa and 0.000358 kPa
288.15 K | 0.000641 kPa and 0.000637 kPa and 0.000639 kPa
293.11 K | 0.001082 kPa
293.14 K | 0.001071 kPa and 0.001079 kPa
293.15 K | 0.001116 kPa and 0.001114 kPa and 0.001118 kPa
298.15 K | 0.001894 kPa [middle of 6 runs]
303.15 K | 0.003189 kPa and 0.003178 kPa and 0.00319 kPa
303.17 K | 0.003087 kPa and 0.003101 kPa
303.18 K | 0.003091 kPa
308.15 K | 0.005168 kPa and 0.00517 kPa and 0.005167 kPa
308.19 K | 0.005018 kPa and 0.005019 kPa and 0.005016 kPa
313.16 K | 0.008035 kPa and 0.008051 kPa and 0.008055 kPa
318.16 K | 0.01263 kPa and 0.01264 kPa and 0.01265 kPa
323.17 K | 0.0196 kPa and 0.01965 kPa and 0.0197 kPa
328.17 K | 0.03003 kPa and 0.0301 kPa
333.16 K | 0.04478 kPa and 0.04499 kPa and 0.04502 kPa
338.14 K | 0.06605 kPa and 0.06612 kPa and 0.06614 kPa
343.13 K | 0.09605 kPa and 0.09608 kPa and 0.0961 kPa
348.1 K | 0.1372 kPa and 0.1373 kPa
353.07 K | 0.194 kPa and 0.1941 kPa
358.04 K | 0.2693 kPa and 0.2697 kPa
362.92 K | 0.3686 kPa and 0.3687 kPa
362.94 K | 0.3684 kPa

[2]
Details | molar heat capacity at constant pressure [J/K/mol]
260.8 K | 310.1
265 K | 313.5
270 K | 317.5
275 K | 322.2
280 K | 326.7
285 K | 331.3
290 K | 336.2
295 K | 341.3
300 K | 346.1
305 K | 350.9
310 K | 355.8
315 K | 360.7
320 K | 365.6
325 K | 370.6
330 K | 376.2
335 K | 381.1
340 K | 385.5
345 K | 389.8
350 K | 394.3
355 K | 398.6

CC(C)=CCC[C@H](C)CCO [(S)-3,7-dimethyl-6-octen-1-ol]
[1], Liquid
Details | vapor or sublimation pressure
273.65 K | 0.000129 kPa and 0.00013 kPa and 0.000133 kPa
278.15 K | 0.000231 kPa and 0.000228 kPa and 0.000235 kPa
283.15 K | 0.00043 kPa and 0.000432 kPa
288.15 K | 0.00077 kPa and 0.000777 kPa and 0.000779 kPa
293.15 K | 0.001361 kPa and 0.001358 kPa
293.17 K | 0.001319 kPa and 0.001331 kPa and 0.001328 kPa
298.15 K | 0.00233 kPa and 0.002328 kPa and 0.002323 kPa
298.18 K | 0.002272 kPa
298.19 K | 0.00227 kPa
298.2 K | 0.002271 kPa
303.15 K | 0.003871 kPa and 0.003875 kPa and 0.003876 kPa
303.16 K | 0.003787 kPa
303.19 K | 0.003806 kPa
303.2 K | 0.003795 kPa
308.15 K | 0.006284 kPa and 0.006296 kPa and 0.006302 kPa
308.19 K | 0.006203 kPa and 0.006213 kPa
308.21 K | 0.006198 kPa
313.2 K | 0.009899 kPa
313.21 K | 0.009904 kPa and 0.009905 kPa
318.23 K | 0.01566 kPa
318.24 K | 0.01565 kPa and 0.01566 kPa
323.22 K | 0.0243 kPa
323.23 K | 0.02431 kPa
328.2 K | 0.03714 kPa
328.21 K | 0.03718 kPa and 0.03714 kPa
333.23 K | 0.05589 kPa and 0.05585 kPa and 0.05576 kPa
338.19 K | 0.08215 kPa
338.2 K | 0.08219 kPa and 0.08218 kPa
343.19 K | 0.1192 kPa and 0.1193 kPa
348.14 K | 0.1705 kPa
348.15 K | 0.1706 kPa
353.1 K | 0.2403 kPa and 0.2404 kPa
358.01 K | 0.3337 kPa
358.02 K | 0.3345 kPa and 0.3342 kPa
362.97 K | 0.4601 kPa
362.98 K | 0.4602 kPa and 0.4607 kPa

[2]
Details | molar heat capacity at constant pressure [J/K/mol]
260.2 K | 316.4
265 K | 320.7
270 K | 325.5
275 K | 330.5
280 K | 335.6
285 K | 340.9
290 K | 346.5
295 K | 352.3
300 K | 357.9
305 K | 363.6
310 K | 369.3
315 K | 375
320 K | 380.6
325 K | 386.5
330 K | 392.9
335 K | 398.8
340 K | 404
345 K | 409.2
350 K | 414.6
355 K | 420
